The compounds below were run against T1, Cathepsin B-like cysteine protease (Trypanosoma brucei, UniProt Q6R7Z5) (assay: Inhibition of Trypanosoma brucei CatB).
T1 sequence (Q6R7Z5 whole entry): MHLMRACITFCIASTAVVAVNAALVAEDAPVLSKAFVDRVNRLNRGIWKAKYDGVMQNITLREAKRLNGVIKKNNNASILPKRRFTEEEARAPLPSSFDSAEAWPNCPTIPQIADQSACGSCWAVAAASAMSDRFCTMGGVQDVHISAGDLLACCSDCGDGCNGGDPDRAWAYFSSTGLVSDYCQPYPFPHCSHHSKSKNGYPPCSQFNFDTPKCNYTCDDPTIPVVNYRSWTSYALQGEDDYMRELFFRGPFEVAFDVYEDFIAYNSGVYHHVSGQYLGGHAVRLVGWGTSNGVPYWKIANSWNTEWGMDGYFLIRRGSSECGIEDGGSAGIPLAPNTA

| SMILES | IC50 |
| --- | --- |
| Cn1c2c3ccc(Cl)cc3nc-2c(NC2CCNCC2)c2ccc(Cl)cc21 | 43 µM |
| Cn1c2c3ccccc3nc-2c(Nc2cccnc2)c2ccccc21 | 59 µM |
| Cn1c2c3ccccc3nc-2c(NC2CCN(Cc3ccccc3O)CC2)c2ccccc21 | 26 µM |
| CCN(CC)CCCC(C)Nc1c2nc3ccccc3c-2n(C)c2ccccc12 (stereo not given) | > 100 µM |
| CC(C)NCCCNc1c2nc3ccccc3c-2n(C)c2ccccc12 | 62 µM |
| CN(C)CC(C)(C)CNc1c2nc3ccccc3c-2n(C)c2ccccc12 | 62 µM |

The next lines start with the values.

| IC50 | SMILES |
| --- | --- |
| 59 µM | Cn1c2c3ccccc3nc-2c(NC2CCNCC2)c2ccc(Cl)cc21 |
| 59 µM | CCN(CC)Cc1ccc(Nc2c3nc4ccccc4c-3n(C)c3ccccc23)cc1O |
| 26 µM | CC(C)CN1CCC(Nc2c3nc4ccccc4c-3n(C)c3ccccc23)CC1 |
| > 100 µM | CC(CN(C)C)Nc1c2nc3ccccc3c-2n(C)c2ccccc12 (stereo not given) |

— BindingDB's records for doi:10.1016/j.bmcl.2012.07.104 (University of Lisbon, 2012)
